Structures are written as SMILES. pIC50: −log10 of the molar value.

As a reminder, the pIC50 is −log10 of the IC50, conventionally taken in molar units.

Experiment [1] deals with T1, HIV-1 reverse transcriptase (HIV-1 RT) (Human immunodeficiency virus type 1 group M subtype B, UniProt P03366).
T1 construct: HIV-1 reverse transcriptase (HIV-1 RT) was purchased from Abcam (cat#ab63979); purchased Abcam ab63979
Kind of experiment: HIV-1 reverse transcriptase RdDp activity assay. It is filed as biochemical. From the text: HIV-1 reverse transcriptase (HIV-1 RT) was purchased from Abcam (cat#ab63979). Recombinant HBV polymerase (Hepatitis B virus genotype D subtype ayw, full length) was cloned using the baculovirus system, expressed in sf9 cells, and purified with similar strategy and methods described by Lanford et al.. A DNA primer (5′-[…]-3′) was synthesized by IDTDNA and a 358-nt RNA template was synthesized in-house using Megascript T7 transcription kit (ThermoFisher, cat#AM1334). dNTPs were purchased from Thermo Fisher and ^3H-dTTP from Perkin Elmer. Filter plates were purchased from Millipore (cat#MABN0V050) and microscint-20 was purchased from Perkin Elmer (cat#6013621).
The RNA-dependent DNA polymerization (RdDp) activity of HIV-1 RT was measured by the incorporation of radioactively labeled nucleotides by HIV-1 RT into acid-insoluble DNA products from the DNA primer primed RNA template. To test compound inhibition, the reactions were performed at 30 °C for 40 min in a reaction mixture containing reaction buffer (50 mM Tris-Cl, pH 7.5, 100 mM KCl, 12.5 mM MgCl2, 4 mM DTT), 1 nM HIV-1 RT, 0.1 µM DNA primer, 0.02 µM RNA template, 10% DMSO, 0.1 µM dATP, 1 µM dGTP, 0.1 µM dCTP, 0.32 µM ^3H-dTTP, and compounds at various concentrations. The 50 µL reactions were performed in 96-well plates. The reactions were quenched with a 60 µL cold mixture of 20% (w/v) TCA and 0.5 mM ATP and incubated at 4 °C for 1 h. The reactions were loaded onto 96-well filter plates. The filters on plates were washed three times with 10% TCA and once with 70% ethanol on a Millipore plate wash station with vacuum applied. The filters on the plate were air-dried and 40 μL Microscint-20 was added to each well. The acid-precipitated tritiated DNA products retained on the filters were detected by a Trilux MicroBeta scintillation reader (Perkin Elmer).
All data were analyzed with GraphPad Prism. The compound concentration at which the enzyme-catalyzed rate was reduced by 50% (IC50) was calculated by fitting the data to the equation Y = % Min + (% Max − % Min) / (1 + 10^((logIC50-X)*h)), where Y corresponds to the percent inhibition to the enzyme activity, % Min is the residual inhibition activity without compound, % Max is the maximum inhibition of enzyme activity at saturating compound concentration, and X corresponds to the log of compound concentrations, and h is the hillslope.

The target of a further experiment is T2, human DNA polymerase α (Homo sapiens, UniProt P09884).
T2 construct: purchased CHIMERx 1075-1
T2 sequence (P09884 1-1462): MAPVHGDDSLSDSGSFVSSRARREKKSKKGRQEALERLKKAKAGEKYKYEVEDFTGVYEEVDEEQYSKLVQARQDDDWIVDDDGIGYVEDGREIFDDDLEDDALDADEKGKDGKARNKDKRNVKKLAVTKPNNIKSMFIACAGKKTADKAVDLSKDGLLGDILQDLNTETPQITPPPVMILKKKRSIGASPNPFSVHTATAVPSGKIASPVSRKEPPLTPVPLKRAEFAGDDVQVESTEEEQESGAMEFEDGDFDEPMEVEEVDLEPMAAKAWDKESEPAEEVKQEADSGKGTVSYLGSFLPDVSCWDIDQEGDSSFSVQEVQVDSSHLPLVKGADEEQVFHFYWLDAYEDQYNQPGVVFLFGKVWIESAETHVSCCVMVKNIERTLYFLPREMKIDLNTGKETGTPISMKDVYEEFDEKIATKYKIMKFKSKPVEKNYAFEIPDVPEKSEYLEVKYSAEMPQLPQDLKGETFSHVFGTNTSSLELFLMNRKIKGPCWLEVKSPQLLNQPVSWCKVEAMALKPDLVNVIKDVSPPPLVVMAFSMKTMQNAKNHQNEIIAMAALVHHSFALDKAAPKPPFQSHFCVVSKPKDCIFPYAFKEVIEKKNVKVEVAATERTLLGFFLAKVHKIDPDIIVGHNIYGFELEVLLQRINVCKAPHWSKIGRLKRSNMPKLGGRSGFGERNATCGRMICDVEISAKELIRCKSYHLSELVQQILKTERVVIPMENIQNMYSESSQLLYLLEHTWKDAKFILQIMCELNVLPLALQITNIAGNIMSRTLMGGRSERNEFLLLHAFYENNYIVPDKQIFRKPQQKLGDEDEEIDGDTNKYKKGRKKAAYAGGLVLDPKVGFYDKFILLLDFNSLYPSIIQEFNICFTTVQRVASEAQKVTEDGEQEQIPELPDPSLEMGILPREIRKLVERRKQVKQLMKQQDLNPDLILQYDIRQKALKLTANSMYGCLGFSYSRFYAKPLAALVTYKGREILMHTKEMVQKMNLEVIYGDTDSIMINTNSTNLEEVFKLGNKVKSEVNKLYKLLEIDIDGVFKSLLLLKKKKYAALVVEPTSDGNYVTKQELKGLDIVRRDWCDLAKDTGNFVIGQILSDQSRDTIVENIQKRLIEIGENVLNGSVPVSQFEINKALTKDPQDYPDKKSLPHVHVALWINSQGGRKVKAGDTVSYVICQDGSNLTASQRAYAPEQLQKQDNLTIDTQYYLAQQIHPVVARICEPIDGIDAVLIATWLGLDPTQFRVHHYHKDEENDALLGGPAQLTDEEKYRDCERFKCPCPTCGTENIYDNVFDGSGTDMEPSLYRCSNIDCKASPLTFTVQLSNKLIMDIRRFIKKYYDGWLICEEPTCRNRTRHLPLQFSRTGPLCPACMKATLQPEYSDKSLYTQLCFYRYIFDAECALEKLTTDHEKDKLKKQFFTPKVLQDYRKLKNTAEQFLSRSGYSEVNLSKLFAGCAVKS
Kind of experiment: Human DNA polymerase α DdDp assay. It is filed as biochemical. As to the method: The DNA-dependent DNA polymerization (DdDp) activity of human DNA polymerases α, β, and γ was measured as described previously. Briefly, the assays were run with 5 U/mL recombinant DNA polymerase α (CHIMERx, cat#1075-1), 0.5 U/mL recombinant DNA polymerase β (CHIMERx, cat#1077-1), or 0.1 μg/mL recombinant DNA polymerase γ (Abcam, cat#196066), 62 μg/mL activated calf thymus DNA, 50 mM Tris-HCl (pH 8.0), 60 mM KCl, 5 mM MgCl2, 4 mM dithiothreitol (DTT), 0.1 mg/mL BSA, 2 μM dCTP, 2 μM dATP, 2 μM dGTP, 0.05 μCi/μL ^3H-dTTP (Perkin Elmer) and compounds at various concentrations at 30 °C for 2 h. The 50 μL reactions were processed following the same filter plate method as described above for HIV-1 RT. Acid-precipitated tritiated DNA products retained on the filters were detected by a Trilux MicroBeta scintillation reader (Perkin Elmer). All data were analyzed as described above for HIV-1 RT.

In the case of `Nc1ncnc2c1ncn2[C@@H]1OC[C@](F)(COP(=O)(O)OP(=O)(O)OP(=O)(O)O)[C@H]1CO` [Compound 38, ((3S,4S,5R)-5-(6-Amino-9H-purin-9-yl)-3-fluoro-4-(hydroxymethyl)tetrahydrofuran-3-yl)methyl triphosphate], the pIC50 is 6.49 in experiment [1] and 4.10 at human DNA polymerase α. Moreover, in experiment [1], the “inhibition of HIV-1 RT” value is on record as “potent inhibitor of HIV-1 RT”. Further, the “inhibition of human DNA polymerases” value against human DNA polymerase α (human DNA polymerases α, β and γ together) was “low or no inhibition activity against human DNA polymerases”.
